Assay results published in PubChem BioAssay AID194 (DTP/NCI, 2004).
Several values for one entry are separate records, joined by “and”; a condition that tells them apart may be missing. Equal entries are not always repeated. Inconclusive results are not listed.

Tested on: BDF1 mice, B16 melanoma s.c., survival/tumor T/C
Assay: NCI In Vivo Anticancer Drug Screen. Data for tumor model B16 Melanoma (subcutaneous) in B6D2F1 (BDF1) mice
Experimental: The antitumor activity of compounds was measured in mice bearing transplantable tumors. Survival or tumor size were measured and the results are expressed as the measurement made in the treated group (T) divided by the measurement made in the vehicle treated control group (C). The tumor model used in this assay is B16 Melanoma (subcutaneous) in B6D2F1 (BDF1) mice

[1] = endpoint: median survival time, dose: 0.12 mg/kg/injection, schedule: Q01DX009 (ip), vehicle: saline, higher = longer survival
[2] = endpoint: median survival time, dose: 100.0 mg/kg/injection, schedule: Q01DX009 (ip), vehicle: Klucel (hydroxypropylcellulose) (HPC), higher = longer survival
[3] = endpoint: median survival time, dose: 200.0 mg/kg/injection, schedule: Q01DX009 (ip), vehicle: Klucel (hydroxypropylcellulose) (HPC), higher = longer survival
[4] = endpoint: median survival time, dose: 400.0 mg/kg/injection, schedule: Q01DX009 (ip), vehicle: Klucel (hydroxypropylcellulose) (HPC), higher = longer survival

**Q.** What does the source list for `C1CN1c1nc(N2CC2)nc(N2CC2)n1`?
**A.** T/C [1]: 106 % of control; T/C (endpoint: median survival time, dose: 0.5 mg/kg/injection, schedule: Q01DX009 (ip), vehicle: saline with Tween-80, higher = longer survival): 110 % of control; T/C (endpoint: median survival time, dose: 0.5 mg/kg/injection, schedule: Q08DX002 (ip), vehicle: saline with Tween-80, higher = longer survival): 104 % of control; T/C (endpoint: median survival time, dose: 1.0 mg/kg/injection, schedule: Q01DX009 (ip), vehicle: saline with Tween-80, higher = longer survival): 93 % of control; T/C (endpoint: median survival time, dose: 2.0 mg/kg/injection, schedule: Q08DX002 (ip), vehicle: saline with Tween-80, higher = longer survival): 179 % of control; T/C (endpoint: median survival time, dose: 4.0 mg/kg/injection, schedule: Q08DX002 (ip), vehicle: saline with Tween-80, higher = longer survival): 87 % of control; T/C (endpoint: median tumor weight (est.), dose: 0.12 mg/kg/injection, schedule: Q01DX009 (ip), vehicle: saline with Tween-80, higher = larger tumour): 154 % of control; T/C (endpoint: median tumor weight (est.), dose: 0.25 mg/kg/injection, schedule: Q01DX009 (ip), vehicle: saline with Tween-80, higher = larger tumour): 95 % of control; T/C (endpoint: median tumor weight (est.), dose: 0.5 mg/kg/injection, schedule: Q01DX009 (ip), vehicle: saline with Tween-80, higher = larger tumour): 83 % of control; T/C (endpoint: median tumor weight (est.), dose: 0.5 mg/kg/injection, schedule: Q08DX002 (ip), vehicle: saline with Tween-80, higher = larger tumour): 268 % of control; T/C (endpoint: median tumor weight (est.), dose: 1.0 mg/kg/injection, schedule: Q01DX009 (ip), vehicle: saline, higher = larger tumour): 34 % of control; T/C (endpoint: median tumor weight (est.), dose: 1.0 mg/kg/injection, schedule: Q08DX002 (ip), vehicle: saline with Tween-80, higher = larger tumour): 104 % of control; T/C (endpoint: median tumor weight (est.), dose: 2.0 mg/kg/injection, schedule: Q08DX002 (ip), vehicle: saline with Tween-80, higher = larger tumour): 81 % of control; T/C (endpoint: median tumor weight (est.), dose: 4.0 mg/kg/injection, schedule: Q08DX002 (ip), vehicle: saline with Tween-80, higher = larger tumour): 19 % of control; T/C (endpoint: median tumor weight (est.), dose: 4.0 mg/kg/injection, schedule: Q08DX002 (ip), vehicle: saline, higher = larger tumour): 86 % of control

**Q.** Which T/C (endpoint: median survival time, dose: 0.01 mg/kg/injection, schedule: Q01DX009 (ip), vehicle: Klucel (hydroxypropylcellulose) (HPC), higher = longer survival) does the source give for `C[n+]1c(/C=C\C=C\N2CCCCC2)sc2ccccc21` here?
**A.** Its T/C is 188 % of control.

**Q.** What about the T/C (endpoint: median survival time, dose: 0.02 mg/kg/injection, schedule: Q01DX009 (ip), vehicle: Klucel (hydroxypropylcellulose) (HPC), higher = longer survival) of the same compound?
**A.** Its T/C is 170 % of control.

**Q.** And the T/C (endpoint: median survival time, dose: 0.05 mg/kg/injection, schedule: Q01DX009 (ip), vehicle: Klucel (hydroxypropylcellulose) (HPC), higher = longer survival)?
**A.** Its T/C is 160 % of control.

**Q.** What about the T/C (endpoint: median survival time, dose: 0.1 mg/kg/injection, schedule: Q01DX009 (ip), vehicle: Klucel (hydroxypropylcellulose) (HPC), higher = longer survival) of the same compound?
**A.** Its T/C is 171 % of control.

**Q.** And the T/C (endpoint: median survival time, dose: 0.4 mg/kg/injection, schedule: Q01DX009 (ip), vehicle: Klucel (hydroxypropylcellulose) (HPC), higher = longer survival)?
**A.** The T/C was 121 % of control.

**Q.** For `OCC1OC(n2cnc3c2NC=NC[C@H]3O)CC1O` (stereo partly drawn), which T/C (endpoint: median survival time, dose: 0.05 mg/kg/injection, schedule: Q03HX024 (ip), vehicle: saline, higher = longer survival) is on record?
**A.** The T/C was 90 % of control.

**Q.** And the T/C (endpoint: median survival time, dose: 0.1 mg/kg/injection, schedule: Q03HX024 (ip), vehicle: saline, higher = longer survival)?
**A.** Its T/C is 105 % of control.

**Q.** How did the T/C (endpoint: median survival time, dose: 0.78 mg/kg/injection, schedule: Q01DX009 (ip), vehicle: Klucel (hydroxypropylcellulose) (HPC), higher = longer survival) turn out when `C[C@@H]1CC[C@@]2(NC1)O[C@H]1C[C@H]3[C@@H]4CC=C5C[C@@H](O)CC[C@]5(C)[C@H]4CC[C@]3(C)[C@H]1[C@@H]2C` was run?
**A.** The T/C was 121 % of control.

**Q.** What about the T/C (endpoint: median survival time, dose: 1.56 mg/kg/injection, schedule: Q01DX009 (ip), vehicle: Klucel (hydroxypropylcellulose) (HPC), higher = longer survival) of the same compound?
**A.** Its T/C is 121 % of control.

**Q.** What about the T/C (endpoint: median survival time, dose: 6.25 mg/kg/injection, schedule: Q01DX009 (ip), vehicle: Klucel (hydroxypropylcellulose) (HPC), higher = longer survival) of the same compound?
**A.** The T/C was 120 % of control.

**Q.** How did the T/C (endpoint: median survival time, dose: 0.06 mg/kg/injection, schedule: Q01DX009 (ip), vehicle: saline, higher = longer survival) turn out when `CC[C@]1(O)C[C@H]2CN(CCc3c([nH]c4ccccc34)[C@@](C(=O)OC)(c3cc4c(cc3OC)N(C=O)[C@H]3[C@@](O)(C(=O)OC)[C@H](OC(C)=O)[C@]5(CC)C=CCN6CC[C@]43[C@@H]65)C2)C1` was run?
**A.** The T/C was 100 % of control and 115 % of control.

**Q.** And the T/C [1]?
**A.** The T/C was 104 % of control and 121 % of control.

**Q.** What about the T/C (endpoint: median survival time, dose: 0.13 mg/kg/injection, schedule: Q01DX009 (ip), vehicle: saline, higher = longer survival) of the same compound?
**A.** Its T/C is 100 % of control.

**Q.** And the T/C (endpoint: median survival time, dose: 0.7 mg/kg/injection, schedule: Q04DX003 (ip), vehicle: saline, higher = longer survival)?
**A.** The T/C was 93 % of control.

**Q.** And the T/C (endpoint: median survival time, dose: 1.0 mg/kg/injection, schedule: Q04DX003 (ip), vehicle: saline, higher = longer survival)?
**A.** The T/C was 100 % of control.

**Q.** What about the T/C (endpoint: median survival time, dose: 1.5 mg/kg/injection, schedule: Q04DX003 (ip), vehicle: saline, higher = longer survival) of the same compound?
**A.** Its T/C is 113 % of control.

**Q.** How did the T/C (endpoint: median survival time, dose: 1.5 grams/kg/injection, schedule: Q01DX009 (ip), vehicle: saline, higher = longer survival) turn out when `CS(C)=O` was run?
**A.** Its T/C is 105 % of control.

**Q.** And the T/C (endpoint: median survival time, dose: 3.0 grams/kg/injection, schedule: Q01DX009 (ip), vehicle: saline, higher = longer survival)?
**A.** The T/C was 109 % of control and 111 % of control.

**Q.** What about the T/C (endpoint: median survival time, dose: 6.0 grams/kg/injection, schedule: Q01DX009 (ip), vehicle: saline, higher = longer survival) of the same compound?
**A.** The T/C was 96 % of control and 108 % of control.

**Q.** Which T/C (endpoint: median survival time, dose: 6.25 mg/kg/injection, schedule: Q01DX009 (ip), vehicle: saline with Tween-80, higher = longer survival) does the source give for `CCOC(=O)c1csc(-c2csc(CCNC(=O)c3ccccc3)n2)n1` here?
**A.** The T/C was 95 % of control.

**Q.** What about the T/C (endpoint: median survival time, dose: 12.5 mg/kg/injection, schedule: Q01DX009 (ip), vehicle: saline with Tween-80, higher = longer survival) of the same compound?
**A.** The T/C was 102 % of control.

**Q.** What about the T/C (endpoint: median survival time, dose: 25.0 mg/kg/injection, schedule: Q01DX009 (ip), vehicle: saline with Tween-80, higher = longer survival) of the same compound?
**A.** Its T/C is 87 % of control.

**Q.** What about the T/C (endpoint: median survival time, dose: 50.0 mg/kg/injection, schedule: Q01DX009 (ip), vehicle: saline with Tween-80, higher = longer survival) of the same compound?
**A.** Its T/C is 91 % of control.

**Q.** And the T/C (endpoint: median survival time, dose: 100.0 mg/kg/injection, schedule: Q01DX009 (ip), vehicle: saline with Tween-80, higher = longer survival)?
**A.** The T/C was 106 % of control.

**Q.** How did the T/C [2] turn out when `CC(=O)O[C@]1(C(C)=O)CC[C@H]2[C@@H]3C[C@H](C)C4=CC(=O)CC[C@]4(C)[C@H]3CC[C@@]21C` was run?
**A.** Its T/C is 111 % of control and 112 % of control.

**Q.** What about the T/C [3] of the same compound?
**A.** The T/C was 86 % of control and 102 % of control.

**Q.** And the T/C [4]?
**A.** Its T/C is 96 % of control and 102 % of control.

**Q.** And the T/C (endpoint: median survival time, dose: 800.0 mg/kg/injection, schedule: Q01DX009 (ip), vehicle: Klucel (hydroxypropylcellulose) (HPC), higher = longer survival)?
**A.** The T/C was 104 % of control and 111 % of control.

**Q.** What does the source list for `Cc1cc(OCc2nc(N)nc(N)c2-c2ccc(Cl)c(Cl)c2)ccc1NS(=O)(=O)c1cccc(S(=O)(=O)F)c1`?
**A.** T/C (endpoint: median survival time, dose: 117.0 mg/kg/injection, schedule: Q04DX003 (ip), vehicle: saline, higher = longer survival): 95 % of control; T/C (endpoint: median survival time, dose: 176.0 mg/kg/injection, schedule: Q04DX003 (ip), vehicle: saline, higher = longer survival): 118 % of control

**Q.** With `CN(C)c1ccc(C(=O)c2ccc(N(C)C)cc2)cc1` as the compound, how does the T/C [2] read?
**A.** The T/C was 113 % of control.

**Q.** What about the T/C [3] of the same compound?
**A.** Its T/C is 98 % of control.

**Q.** What about the T/C [4] of the same compound?
**A.** The T/C was 110 % of control.
